Source: the NIST ThermoML archive (doi:10.1016/j.jct.2016.08.038)

Tests used:
[1] = Molar enthalpy of transition or fusion; details: DSC
[2] = Liquid; for electrical conductivity: Frequency=0.001 MHz, Alternating current cell with electrodes; for speed of sound: Frequency=3 MHz, Sing-around technique in a fixed-path interferometer; for kinematic viscosity: Capillary tube (Ostwald / Ubbelohde) method; for mass density: Vibrating tube method; for surface tension liquid-gas: Drop volume

CC[n+]1ccccc1.O=S(=O)([O-])C(F)(F)F [1-ethylpyridinium triflate]
Details | Molar enthalpy of transition or fusion [kcal/mol] | surface tension liquid-gas [mN/m]
[1], Crystal 1 | 2.75 | –
[1], Crystal 2 | 0.167 | –
[2], 293.15 K | – | 42.48
[2], 295.65 K | – | 42.36
[2], 298.15 K | – | 42.26
[2], 300.65 K | – | 42.15
[2], 303.15 K | – | 42.08
[2], 305.65 K | – | 42.02
[2], 308.15 K | – | 41.93
[2], 310.65 K | – | 41.83
[2], 313.15 K | – | 41.71
[2], 315.65 K | – | 41.65
[2], 318.15 K | – | 41.55
[2], 320.65 K | – | 41.43

[2]
Details | electrical conductivity [S/m] | kinematic viscosity [m2/s] | mass density [kg/m3] | speed of sound [m/s]
293.15 K, 100 kPa | 0.407 | – | – | 1500.4
293.15 K, 101.33 kPa | – | 6.89e-05 | 1409.09 | –
295.65 K, 100 kPa | 0.456 | – | – | 1495
295.65 K, 101.33 kPa | – | 6.14e-05 | 1407.09 | –
298.15 K, 100 kPa | 0.502 | – | – | 1489.1
298.15 K, 101.33 kPa | – | 5.47e-05 | 1405.03 | –
300.65 K, 100 kPa | 0.556 | – | – | 1483.4
300.65 K, 101.33 kPa | – | 4.95e-05 | 1402.96 | –
303.15 K, 100 kPa | 0.613 | – | 1400.91 | 1477.7
303.15 K, 101.33 kPa | – | 4.45e-05 | 1400.9 | –
303.15 K, 5000 kPa | – | – | 1403.53 | –
303.15 K, 10000 kPa | – | – | 1406.14 | –
303.15 K, 15000 kPa | – | – | 1408.69 | –
303.15 K, 20000 kPa | – | – | 1411.17 | –
303.15 K, 25000 kPa | – | – | 1413.58 | –
303.15 K, 30000 kPa | – | – | 1415.93 | –
303.15 K, 35000 kPa | – | – | 1418.22 | –
303.15 K, 40000 kPa | – | – | 1420.44 | –
305.65 K, 100 kPa | 0.676 | – | – | 1471.9
305.65 K, 101.33 kPa | – | 4.02e-05 | 1398.85 | –
308.15 K, 100 kPa | 0.744 | – | – | 1466.3
308.15 K, 101.33 kPa | – | 3.63e-05 | 1396.8 | –
310.65 K, 100 kPa | 0.808 | – | – | 1461.1
310.65 K, 101.33 kPa | – | 3.3e-05 | 1394.77 | –
313.15 K, 100 kPa | 0.872 | – | – | 1455
313.15 K, 101.33 kPa | – | 3.01e-05 | 1392.77 | –
315.65 K, 100 kPa | 0.953 | – | – | 1450
315.65 K, 101.33 kPa | – | 2.75e-05 | 1390.68 | –
318.15 K, 100 kPa | 1.02 | – | – | 1444
318.15 K, 101.33 kPa | – | 2.52e-05 | 1388.63 | –
320.65 K, 100 kPa | 1.13 | – | – | 1438.2
320.65 K, 101.33 kPa | – | 2.31e-05 | 1386.59 | –
323.15 K, 100 kPa | 1.21 | – | – | 1433.2
